In patent US8188126B2, “Imidazolic compounds and use thereof as alpha-2 adrenergic receptors” (Pierre Fabre Medicament, priority 2002, dated 2012):

What was measured:
[1] = tested on: rats; test: Morris water maze test (spatial memory, probe trial); type: in vivo; conditions: for Effect on spatial memory processes (in words): i.p. after training sessions of days 1 and 2; for Increase in spatial memory performance: probe trial on day 3 after two training days
Text: Morris Water Maze—Basic Principles of the Test
In the animal test paradigm, rats are placed into a circular pool containing water and are required to find an escape platform just beneath the surface of the water and therefore invisible to the animal. The performances are dependent on the number of training days.
Morris Water Maze—Detailed Protocol
The water maze test was adapted from the original protocol of Morris (1981). The test apparatus consisted of a circular fibreglass tank (130 cm in diameter, 50 cm deep). The pool was filled to a height of 30 cm with water at room temperature (21-22° C.). The pool was divided into four virtual quadrants (Q1, Q2, Q3 and Q4) of equal surface area. A transparent escape platform made of Plexiglas (10 cm in diameter, 29 cm high) was placed in a fixed location in the tank, 1 cm below the water surface. […] Many extra-maze cues surrounded the maze and were available for the rats to use in locating the escape platform. On the training trials, the platform remained in a constant location in the centre of one quadrant (Q4) equidistant from the centre and the edge of the pool. Each rat received three trials/day for 1, 2, 3 or 4 days. Each training trial involved placing the rat into the pool facing the wall at one of the 3 quadrants Q1, Q2 and Q3. A different starting point was randomly used on each trial. The rats were allowed to swim freely until they found the escape platform. The latency to find the hidden platform was recorded and used as a measure of acquisition of the task. […] The intertrial interval was 20 sec during which the rat remained on the platform. Twenty hours after the last training trial, the platform was removed from the pool, the rats were allowed to swim for 60 sec in the pool and the time spent in the target quadrant Q4 (the quadrant in which the platform was during training) was recorded. The percent time spent in the previous training quadrant Q4 was used as an index of memory. The higher the percentage, the better the memory was considered to be (Yavich L., Sirviö J., Haapalinna A., Puumala T., Koivisto E., Heinonen E., Riekkinen P. Jr. (1996) The systemic administration of tacrine or selegeline facilitate spatial learning in aged Fisher 344 rats. J Neural Transm 103: 619-626).
Pharmacological Treatment and Statistical Analysis
Rats received two training days and were tested in a probe trial, without platform, on the third day. […] Results were expressed as the mean±standard error of the mean (SEM) of performance (latency to find the platform and percentage time spent in target quadrant) and were analysed by one-way analysis of variance, with drug treatment as the factor, followed by a 2-tailed Student t-test (GB-STAT, Friedman P. (1991) GB-STAT: computer aided statistics & graphics, Ver 3.0. Dynamic Microsystems, Inc., Silver Spring). In the probe trial, without platform, results were also compared to chance performance (25%) by a 1-sample Student t-test (GB-STAT, Friedman, 1991). Results obtained with compounds I-1 (Example 4), (−)-1-1 (Example 6), (+)-1-1 (Example 5) and 1-2 (Example 7): […]

[2] = molecular target: T1, human alpha-2A receptor (Homo sapiens, UniProt P08913); test: Bonds with alpha-2 adrenergic receptors ([3H]RX 821002 binding, C6 cell membranes); conditions: 2 nM [3H]RX 821002, C6 cell membranes expressing human alpha-2A receptor, 30 min at 25° C.; read-out: Affinity (pKi) Alpha-2A (converted)
T1 construct: expressed in transfected cells; host or cells: C6 cells (rat glioma, by own knowledge) continuously expressing the human receptor; membranes
T1 sequence (P08913 1-465): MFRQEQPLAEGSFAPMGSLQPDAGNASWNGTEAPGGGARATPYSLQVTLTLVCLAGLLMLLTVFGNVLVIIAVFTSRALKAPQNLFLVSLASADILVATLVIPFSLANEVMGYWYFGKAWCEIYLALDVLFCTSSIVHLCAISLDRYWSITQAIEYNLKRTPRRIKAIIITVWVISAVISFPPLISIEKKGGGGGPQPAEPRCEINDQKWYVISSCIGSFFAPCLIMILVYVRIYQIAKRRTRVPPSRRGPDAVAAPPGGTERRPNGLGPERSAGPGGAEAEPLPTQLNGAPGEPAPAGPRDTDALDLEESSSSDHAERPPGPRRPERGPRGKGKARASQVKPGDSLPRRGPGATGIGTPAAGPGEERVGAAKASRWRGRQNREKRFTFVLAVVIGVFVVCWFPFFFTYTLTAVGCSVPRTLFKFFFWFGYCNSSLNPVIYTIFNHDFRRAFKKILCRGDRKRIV
Experimental: Bonds with Alpha-2 Adrenergic Receptors
The C6 cell membranes continuously expressing the human alpha-2A receptor are prepared in Tris-HCl (pH=7.6). The bond tests are conducted with 2 nM [3H]RX 821002. The incubation medium consists of 0.4 ml of cell membranes (10 μg of proteins), 0.05 ml of radioligand and 0.05 ml of test product or phentolamine (10 μM) to determine the non-specific bond. The reaction is stopped after 30 minutes of incubation at 25° C. by adding 3 ml of Tris-HCl, 50 mM (pH=7.6), cold, followed by filtration on Whatman filters, GF/B using a Brandel. The Ki values are calculated according to the equation Ki=IC50/(1+C/Kd) where C is the concentration and Kd the dissociation constant, pKi=−log Ki. Under these conditions, the compounds according to the invention appear to have a strong affinity for human alpha-2A adrenergic subtype receptors.

[3] = molecular target: T2, human alpha-2A adrenergic receptors (Homo sapiens, UniProt P08913); test: Measurement of alpha-2 adrenergic receptor activation (GTPγS response on membrane preparations); type: biochemical; conditions: expressed with reference to (−)-adrenaline (maximum stimulation = +100), read-out: Intrinsic activity % stimulated
T2 construct: expressed in transfected cells; host or cells: membrane preparations
T2 sequence (P08913 1-465): T1 sequence (P08913 1-465)
Experimental: Measurement of Alpha-2 Adrenergic Receptor Activation
The GTPγS responses are produced on membrane preparations in 20 mM HEPES (pH=7.4) with 30 [mu]M of GDP, 100 mM of NaCl, 3 mM of MgCl2 and 0.2 mM of ascorbic acid. The maximum GTPγS stimulation is determined in the presence of […] of (−)-adrenaline and calculated with respect to the basal GTPγS response. The results are expressed with reference to adrenaline or RX 811059. Under these conditions, the compounds according to the invention are distinguished from the majority of the compounds according to the prior art in that they behave more like reverse agonists on human alpha-2A adrenergic receptors (see table above).

[4] = tested on: scopolamine-induced memory deficiency; test: Scopolamine-induced memory deficiency test (passive avoidance); type: in vivo; conditions: rats
Text: Scopolamine-Induced Memory Deficiency Test. Scopolamine has amnesiac properties in animals and humans. In this way, its administration to healthy humans induces certain symptoms similar to those observed in Alzheimer's disease. Therefore, the scopolamine-induced memory deficiency is used as an experimental pharmacological model of the memory disorders observed in the course of this condition. Scopolamine reduces acquisition, memorisation and recall capacities in a passive avoidance test in rats. It consists of measuring the hesitancy, after learning, shown by an animal to enter a dark compartment in which it receives a low-intensity electric shock. The administration of scopolamine does away with this hesitancy and the compounds studied inhibit the effect of scopolamine. The experimental protocol used is described in Psychopharmacol. 1992, 106, 26-30.

Row | Structure (SMILES) | Effect on spatial memory processes (in words) [1] | Increase in spatial memory performance ([1]; 2.54 mg/kg i.p. immediately after training sessions) [%] | Ki [2] [nM] | Emax [3] [%] | Scopolamine memory deficiency % aplitude of effect ([4]; dose 0.63 mg/kg i.p.) | Increase in spatial memory performance ([1]; 0.16 mg/kg i.p. immediately after training sessions) [%] | Increase in spatial memory performance ([1]; 0.63 and 2.5 mg/kg i.p. immediately after training sessions) | Scopolamine memory deficiency % aplitude of effect ([4]; dose 2.5 mg/kg i.p.) | Increase in spatial memory performance ([1]; 2.5 mg/kg i.p. immediately after training sessions) [%] | Scopolamine memory deficiency % aplitude of effect ([4]; dose 0.16 mg/kg i.p.)
1 | C[C@@H]1[C@H]2c3ccccc3C3(CC3)[C@@]12c1c[nH]cn1 (relative stereo) [Compound 1-2, 4-(1-exo-methyl-6-spiro-1′-cyclopropane-1a,6-dihydro-1H-cyclopropa[a]inden-6a-yl)-1H-imidazole] | promnesic effect | 42 | 7.94 | 7 | +201% |  |  |  |  | 
2 | c1ccc2c(c1)C1CC1(c1c[nH]cn1)C21CC1 (single isomer, unassigned; (+)) [(+)-1-1, (+)-4-(6-spiro-1′-cyclopropane-1a,6-dihydro-1H-cyclopropa[a]inden-6a-yl)-1H-imidazole] | promnesic effect |  |  |  |  | 17 |  |  |  | 
3 | c1ccc2c(c1)C1CC1(c1cnc[nH]1)C21CC1 (single isomer, unassigned; (-)) [(-)-1-1, (−)-4-(6-spiro-1′-cyclopropane-1a,6-dihydro-1H-cyclopropa[a]inden-6a-yl)-1H-imidazole] | promnesic effect |  | 2.51 | 37 |  |  | up to 48% | +138% |  | 
4 | c1ccc2c(c1)C1CC1(c1cnc[nH]1)C21CC1 (stereo not drawn) [Compound 1-1, 4-(6-spiro-1′-cyclopropane-1a,6-dihydro-1H-cyclopropa[a]inden-6a-yl)-1H-imidazole] | promnesic effect |  | 0.316 | 14 |  |  |  | +122% | 46 | 
5 | Fc1ccc2c(c1)C1(CC1)C1(c3c[nH]cn3)CC21 (stereo not drawn) [Compound 1-5, 4-(4-fluoro-6-spiro-t-cyclopropane-1a,6-dihydro-1H-cyclopropa[a]inden-6a-yl)-1H-imidazole] |  |  | 0.316 | -10 | +241% |  |  |  |  | 
6 | COc1cc2c(cc1OC)C(=O)C(CC1CCN(Cc3ccccc3)CC1)C2 (stereo not drawn) [Donepezil, reference compound] |  |  |  |  |  |  |  |  |  | +67%
